Laboratory results from patent US5508450A, “Benzopyran derivatives” (Ono Pharmaceutical Co., Ltd., priority 1989, dated 1996).
pIC50: −log10 of the molar value. Where a name gives a salt, the structure may show the parent alone.

Columns and labels:
[1] = test system: lipid peroxide formation in rat liver homogenate; test: Antioxiding effect: inhibitory activity against formation of peroxidized fat (lipid peroxide by TBA method); assay type: biochemical, Male Sprague Dawley rat; conditions: 200 μM FeCl2, 10% rat liver homogenate, 37° C., 1 hr
Description: The antioxiding effect of the compounds of the present invention has confirmed by the screening system which examines inhibitory activity against formation of peroxidized fat mentioned below. Male Sprague Dawley rat was fasted for 12 hrs (overnight) before experiments, and was anesthetized with ether. Rat liver was perfused with ice-cold 0.9% NaCl via the portal vein, and promptly excised. 10% Liver homogenates were prepared in ice-cold 1.15% KCl. The reaction was started by adding 200 μM FeCl2 to the liver homogenate ([…]), and incubated at 37° C. for 1 hr. Lipid peroxide was measured by the TBA method according to the method of Ohkawa (See Analytical Biochemistry,95, 351 (1979)). The compounds of the present invention were added before incubation. And the efficacy thereof was examined and calculated IC50 values thereof.

[2] = test system: Lysozyme (dimer formation with fructose); test: Inhibitory activity on Maillard reaction: formation of lysozyme dimer (lysozyme + fructose, SDS-PAGE, densitometer); assay type: biochemical; conditions: lysozyme 10 mg/ml, fructose 100 mM, 0.2M sodium phosphate buffer pH 7.4, 37° C., 3 days
Description: The inhibitory activity on Maillard reaction of the compounds of the present invention has confirmed by the screening system mentioned below. Lysozyme (10 mg/ml) and fructose (100 mM) were dissolved in 0.2M sodium phosphatic buffer solution (PH 7.4). The solution was incubated at a temperature of 37° C. for 3 days. A given volume of the reaction solution was separated using SDS-PAGE by the electrophoresis. After the electrophoresis, the SDS-PAGE was dyed by 0.2% Coomassie Brilliant Blue R-250 and then the dimer was determined by densitometer. The compounds of the present invention were added before incubation and the inhibitory activity of them against the formation of the dimer was examined in various concentrations and IC50 values were calculated.

[3] = test system: Maillard reaction; conditions: Brownlee et al., Science 232, 1629 (1986); cited from earlier work
[4] = test system: advanced glycosylation end products in arterial wall connective tissue protein; conditions: administered to diabetic rats; Brownlee et al., Science 232, 1629 (1986); cited from earlier work

Compound	pIC50 [1]	pIC50 [2]	inhibition of Maillard reaction in vitro [3]	inhibition of diabetes-induced accumulation of advanced glycosylation end products in arterial wall connective tissue protein [4]
Cc1c(C)c2c(c(C)c1O)CCC(C)(CCOC(=O)c1ccc(NC(=N)N)cc1)O2 (stereo not drawn) [1 (a), 2-(6-hydroxy-2,5,7,8-tetramethyl-3,4-dihydro-2H-benzo[1,2-b]pyran-2-yl)ethyl4-quanidinobenzoate hydrochloride]	6.27	3.70	–	–
Cc1c(C)c2c(c(C)c1O)CCC(C)(CCOC(=O)C1CCC(CNC(=N)N)CC1)O2 (stereo not drawn) [1 (b), 2-(6-hydroxy-2,5,7,8-tetramethyl-3,4-dihydro-2H-benzo[1,2-b]pyran-2-yl)ethyl4-quanidinomethylcyclohexane carboxylatehydrochloride]	6.11	–	–	–
Cc1c(C)c2c(c(C)c1O)CCC(C)(CCOC(=O)CCCCNC(=N)N)O2 (stereo not drawn) [1 (c), 2-(6-hydroxy-2,5,7,8-tetramethyl-3,4-dihydro-2H-benzo[1,2-b]pyran-2-yl)ethyl5-quanidinopentanoate hydrochloride]	6.10	–	–	–
Cc1c2c(c3ccccc3c1O)OC(C)(CCOC(=O)c1ccc(NC(=N)N)cc1)CC2 (stereo not drawn) [1 (e), 2-(2,5-dimethyl-6-hydroxy-3,4-dihydro-2H-naphtho[1,2-b]pyran-2-yl)ethyl 4-quanidinobenzoatehydrochloride]	6.80	4.30	–	–
Cc1c(C)c2c(c(C)c1O)CCC(C)(CCOC(=O)CCc1ccc(NC(=N)N)cc1)O2 (stereo not drawn) [1 (g), 2-(6-hydroxy-2,5,7,8-tetramethyl-3,4-dihydro-2H-benzo[1,2-b]pyran-2-yl)ethyl3-(4-quanidinophenyl)-propionate hydrochloride]	6.05	–	–	–
Cc1c(C)c2c(c(C)c1O)CCC(C)(CCOC(=O)/C=C/c1ccc(NC(=N)N)cc1)O2 (stereo not drawn) [1 (h), 2-(6-hydroxy-2,5,7,8-tetramethyl-3,4-dihydro-2H-benzo[1,2-b]pyran-2-yl)ethyl4-quanidinocinnamate hydrochloride]	6.05	4.28	–	–
Cc1c2c(c3ccccc3c1O)OC(C)(CCOC(=O)c1ccc(CNC(=N)N)cc1)CC2 (stereo not drawn) [1 (j), 2-(2,5-dimethyl-6-hydroxy-3,4-dihydro-2H-naphtho[1,2-b]pyran-2-yl)ethyl 4-quanidinomethylbenzoatehydrochloride]	6.34	4.22	–	–
Cc1c2c(c3ccccc3c1O)OC(C)(CCOC(=O)c1cccc(NC(=N)N)c1)CC2 (stereo not drawn) [1 (k), 2-(2,5-dimethyl-6-hydroxy-3,4-dihydro-2H-naphtho[1,2-b]pyran-2-yl)ethyl 3-quanidinobenzoatehydrochloride]	6.36	–	–	–
Cc1c2c(c3ccccc3c1O)OC(C)(CCOC(=O)/C=C/c1ccc(NC(=N)N)cc1)CC2 (stereo not drawn) [1 (l), 2-(2,5-dimethyl-6-hydroxy-3,4-dihydro-2H-naphtho[1,2-b]pyran-2-yl)ethyl 4-quanidinocinnamatehydrochloride]	6.42	–	–	–
Cc1c(C)c2c(c(C)c1O)CCC(C)(CCOC(=O)c1ccc(N(C)C(=N)N)cc1)O2 (stereo not drawn) [1 (m), 2-(6-hydroxy-2,5,7,8-tetramethyl-3,4-dihydro-2H-benzo[1,2-b]pyran--2-yl)ethyl 4-(1-methylquanidino)-benzoate hydrochloride]	6.22	3.36	–	–
N=C(N)NN [aminoguanidine]	–	–	inhibits Maillard reaction in vitro	inhibits diabetes-induced accumulation of advanced glycosylation end products in arterial wall connective tissue protein

Now from value to compound, other results behind:

pIC50 [1]	pIC50 [2]	Compound	inhibition of Maillard reaction in vitro [3]	inhibition of diabetes-induced accumulation of advanced glycosylation end products in arterial wall connective tissue protein [4]
6.11	–	Cc1c(C)c2c(c(C)c1O)CCC(C)(CCNC(=O)C1CCC(CNC(=N)N)CC1)O2 (stereo not drawn) [2 (a), N-[2-(6-hydroxy-2,4,7,8-tetramethyl-3,4-dihydro-2H-benzo[1,2-b]pyran-2-yl)-ethyl]-4-quanidinomethyl-cyclohexanecarboxamide hydrochloride]	–	–
6.33	–	Cc1c(C)c2c(c(C)c1O)CCC(C)(CCNC(=O)c1ccc(CNC(=N)N)cc1)O2 (stereo not drawn) [2 (b), N-[2-(6-hydroxy-2,4,7,8-tetramethyl-3,4-dihydro-2H-benzo[1,2-b]pyran-2-yl)-ethyl]-4-quanidinomethyl-benzamide hydrochloride]	–	–
6.22	–	Cc1c(C)c2c(c(C)c1O)CCC(C)(CCOC(=O)c1ccc(CNC(=N)N)cc1)O2 (stereo not drawn) [Example 1, 2-(6-hydroxy-2,5,7,8-tetramethyl-3,4-dihydro-2H-benzo[1,2-b]pyran-2-yl)ethyl 4-guanidinomethylbenzoate hydrochloride]	–	–
6.18	3.35	Cc1c(C)c2c(c(C)c1O)CCC(C)(CCNC(=O)c1ccc(NC(=N)N)cc1)O2 (stereo not drawn) [Example 2, N-[2-(6-hydroxy-2,5,7,8-tetramethyl-3,4-dihydro-2H-benzo[1,2-b]pyran-2-yl)ethyl]-4-guanidinobenzamide hydrochloride]	–	–
6.27	3.44	Cc1c(C)c2c(c(C)c1O)CCC(C)(CCNC(=N)NN)O2 (stereo not drawn) [Example 3, 1-amino-3-[2-(6-hydroxy-2,5,7,8-tetramethyl-3,4-dihydro-2H-benzo[1,2-b]pyran-2-yl)ethyl]guanidine hydroiodide]	–	–
–	5.24	Cc1c(C)c2c(c(C)c1O)CCC(C)(CCOc1ccc(CCOc3ccc(NC(=N)N)cc3)cc1)O2 (stereo not drawn) [Example 27, 4-guanidinophenyl 2-[4-[2-(6-hydroxy-2,5,7,8-tetramethyl-3,4-dihydro-2H-benzo[1,2-b]pyran-2-yl)ethoxy]phenyl]ethyl ether hydrochloride]	–	–
–	5.12	Cc1c(C)c2c(c(C)c1O)CCC(C)(CCCCCCSc1ccc(NC(=N)N)cc1)O2 (stereo not drawn) [Example 29, 4-guanidinophenyl 6-(6-hydroxy-2,5,7,8-tetramethyl-3,4-dihydro-2H-benzo[1,2-b]pyran-2-yl)-n-hexyl thioether hydrochloride]	–	–
–	4.92	N-[4-[2-(6-hydroxy-2,5,7,8-tetramethyl-3,4-dihydro-2H-benzo[1,2-b]pyran-2-yl)-ethoxy]phenyl]-3-guanidino-cinnamamide hydrochloride [7 (b)]	–	–
